Results published in patent publication US20250032485A1, “APPLICATION OF IMIDAZO [1,2-A] PYRAZINE COMPOUNDS OR THEIR PHARMACEUTICALLY ACCEPTABLE SALTS IN THE PREPARATION OF ANTI-CORONAVIRUS DRUGS” (GUANGZHOU MEDICAL UNIVERSITY, priority 2023, published 2025).

target: PLpro of SARS-CoV-2 (Severe acute respiratory syndrome coronavirus 2, UniProt P0DTD1); test: Enzyme activity test in vitro: inhibition of PLpro at fixed concentration 50 μM (RLRGG-AMC substrate); assay type: biochemical; settings: read-out: Inhibition rate at 50 μM (%)

In order of rising inhibition at 50 µM:
1. Fc1ccc(-c2nc3cnccn3c2Nc2ccc(Cl)cc2)cc1 [P37356, N-(4-chlorophenyl)-2-(4-fluorophenyl) imidazo[1,2-a] pyrazin-3-amine]  3.18%
2. O=C(O)c1cccc(Nc2c(-c3ccc(F)cc3)nc3cnccn23)c1 [P19477, 3-[[2-(4-fluorophenyl)imidazo[1,2-a]pyrazin-3-yl]amino] benzoic acid]  5.91%
3. O=C(O)c1cccc(Nc2c(-c3cccc(O)c3)nc3cnccn23)c1 [P37338, 3-[[2-(3-hydroxy-phenyl)imidazo[1,2-a]pyrazin-3-yl]amino] benzoic acid]  11.7%
4. COC(=O)c1cccc(Nc2c(-c3cccc(Br)c3)nc3cnccn23)c1 [P32343, methyl 3-[[2-(3-bromophenyl)imidazo[1,2-a]pyrazin-3-yl]amino] benzoate]  12.9%
5. COc1ccc(-c2nc3cnccn3c2Nc2ccc(C(=O)NC3CCCCC3)cc2)cc1OC [P22450, N-cyclohexyl-4-[[2-(3,4-dimethoxyphenyl)imidazo[1,2-a]pyrazin-3-yl]amino] benzamide]  20.8%
6. COC(=O)c1ccc(-c2nc3cnccn3c2NC2CCCC2)cc1 [P37287, methyl 4-[3-(cyclopentyl-amino)imidazo[1,2-a]pyrazin-2-yl] benzoate]  21%
7. CCc1cccc(C)c1Nc1c(-c2ccc(NC(C)=O)cc2)nc2cnccn12 [P22513, N-[4-[3-(2-ethyl-6-methylanilino)imidazo [1,2-a]pyrazin-2-yl]phenyl]acetamide]  21.9%
8. O=C(NCc1ccco1)c1ccc(Nc2c(-c3ccccc3)nc3cnccn23)cc1 [P22435, N-(furan-2-ylmethyl)-4-[(2-phenylimidazo [1,2-a]pyrazin-3-yl)amino]benzamide]  23.9%
9. CCOC(=O)c1ccc(Nc2c(-c3ccc(N4CCOCC4)cc3)nc3cnccn23)cc1 [P24803, ethyl 4-[[2-(4-morpholin-4-ylphenyl)imidazo [1,2-a]pyrazin-3-yl]amino]benzoate]  24.7%
10. O=C(NCC1CCCO1)c1ccc(Nc2c(-c3ccccc3)nc3cnccn23)cc1 (stereo not shown) [P22463, N-(oxolan-2-ylmethyl)-4-[(2-phenylimidazo [1,2-a]pyrazin-3-yl)amino]benzamide]  25.8%
11. COC(=O)c1ccc(-c2nc3cnccn3c2Nc2cccc(C(F)(F)F)c2)cc1 [P37317, methyl 4-[3-[3-(trifluoro-methyl)anilino]imidazo [1,2-a]pyrazin-2-yl]benzoate]  27.6%
12. COC(=O)c1ccc(-c2nc3cnccn3c2Nc2ccc3c(c2)OCCO3)cc1 [P24862, methyl 4-[3-(2,3-dihydro-1,4-benzodioxin-6-ylamino)imidazo[1,2-a]pyrazin-2-yl] benzoate]  30.1%
13. COc1ccc(-c2nc3cnccn3c2Nc2ccc(C(=O)NCCN3CCOCC3)cc2)cc1 [P22403, 4-[[2-(4-methoxy-phenyl)imidazo[1,2-a]pyrazin-3-yl]amino]-N-(2-morpholin-4-ylethyl)benzamide]  31.7%
14. O=C(O)c1ccc(Nc2c(-c3ccc(N4CCOCC4)cc3)nc3cnccn23)cc1 [P24813, 4-[[2-(4-morpholin-4-ylphenyl)imidazo [1,2-a]pyrazin-3-yl]amino]benzoic acid]  31.9%
15. COc1ccc(Nc2c(-c3ccc(OC)c(OC)c3)nc3cnccn23)cc1 [P19493, 2-(3,4-dimethoxy-phenyl)-N-(4-methoxy-phenyl)imidazo[1,2-a]pyrazin-3-amine]  32.3%
16. COc1ccc(-c2nc3cnccn3c2Nc2ccc(C(=O)NCC3CCCO3)cc2)cc1OC (stereo not shown) [P22440, 4-[[2-(3,4-dimethoxy-phenyl)imidazo[1,2-a]pyrazin-3-yl]amino]-N-(oxolan-2-ylmethyl)benzamide]  33.5%
17. Cc1ccc(-c2nc3cnccn3c2Nc2ccc(C(=O)NC(C)C)cc2)cc1 [P22452, 4-[[2-(4-methylphenyl)imidazo[1,2-a]pyrazin-3-yl]amino]-N-propan-2-ylbenzamide]  33.6%
18. CSc1ccc(-c2nc3cnccn3c2Nc2cccc(C(=O)NCC3CCCO3)c2)cc1 (stereo not shown) [P22418, 3-[[2-(4-methyl-sulfanylphenyl)imidazo [1,2-a]pyrazin-3-yl]amino]-N-(oxolan-2-ylmethyl)benzamide]  34.5%
19. CNC(=O)c1ccc(Nc2c(-c3ccccc3)nc3cnccn23)cc1 [P22451, N-methyl-4-[(2-phenyl-imidazo[1,2-a]pyrazin-3-yl)amino] benzamide]  34.7%
20. Fc1ccc(-c2nc3cnccn3c2Nc2ccc3c(c2)OCO3)cc1 [P28366, N-(1,3-benzodioxol-5-yl)-2-(4-fluoro-phenyl)imidazo[1,2-a]pyrazin-3-amine]  36.3%
21. Cc1ccc(-c2nc3cnccn3c2Nc2ccc(C(=O)NCCN(C)C)cc2)cc1 [P22453, N-[2-(dimethylamino)ethyl]-4-[[2-(4-methylphenyl)imidazo [1,2-a]pyrazin-3-yl]amino]benzamide]  36.6%
22. COc1ccc(-c2nc3cnccn3c2Nc2c(C)cccc2C)cc1OC [P19483, 2-(3,4-dimethoxy-phenyl)-N-(2,6-di-methylphenyl)imidazo [1,2-a]pyrazin-3-amine]  37.8%
23. CN(C)CCNC(=O)c1cccc(Nc2c(-c3ccc(Cl)cc3)nc3cnccn23)c1 [P22457, 3-[[2-(4-chlorophenyl)imidazo[1,2-a]pyrazin-3-yl]amino]-N-[2-(dimethylamino)ethyl]benzamide]  38.6%
24. O=C(O)c1cccc(Nc2c(-c3cccc(Cl)c3)nc3cnccn23)c1 [P19457, 3-[[2-(3-chlorophenyl)imidazo[1,2-a]pyrazin-3-yl]amino] benzoic acid]  39.7%
25. COc1ccc(-c2nc3cnccn3c2Nc2cccc(C(=O)O)c2)cc1 [P19486, 3-[[2-(4-methoxy-phenyl)imidazo[1,2-a]pyrazin-3-yl]amino] benzoic acid]  40.1%
26. Cc1ccc(-c2nc3cnccn3c2Nc2ccc(C(=O)NCc3ccco3)cc2)cc1 [P22455, N-(furan-2-ylmethyl)-4-[[2-(4-methyl-phenyl)imidazo[1,2-a]pyrazin-3-yl]amino] benzamide]  40.1%
27. CCNC(=O)c1cccc(Nc2c(-c3ccc(OC)cc3)nc3cnccn23)c1 [P28734, N-ethyl-3-[[2-(4-methoxyphenyl)imidazo[1,2-a]pyrazin-3-yl]amino]benzamide]  41%
28. COc1ccc(-c2nc3cnccn3c2Nc2ccc(C(=O)NC(C)C)cc2)cc1 [P22432, 4-[[2-(4-methoxy-phenyl)imidazo[1,2-a]pyrazin-3-yl]amino]-N-propan-2-ylbenzamide]  42.2%
29. COC(=O)c1ccc(-c2nc3cnccn3c2Nc2ccc(Cl)cc2)cc1 [P19484, methyl 4-[3-(4-chloroanilino)imidazo[1,2-a]pyrazin-2-yl]benzoate]  42.4%
30. CSc1ccc(-c2nc3cnccn3c2Nc2cccc(C(=O)NC(C)C)c2)cc1 [P22417, 3-[[2-(4-methyl-sulfanylphenyl)imidazo [1,2-a]pyrazin-3-yl]amino]-N-propan-2-ylbenzamide]  43.4%
31. COC(=O)c1cccc(Nc2c(-c3ccc(O)c(OC)c3)nc3cnccn23)c1 [P19505, methyl 3-[[2-(4-hydroxy-3-methoxyphenyl)imidazo [1,2-a]pyrazin-3-yl]amino]benzoate]  44.7%
